Results on two compounds are retold here after patent publication US8357786B2, “Method for preparing Gynostemma pentaphyllum extract with increasing damulin A and damulin B contents, and pharmaceutical compositions of the same for treating metabolic disease” (TG Biotech Co., Ltd., priority 2009, dated 2013).

What all share (type): cell-based
Assay [1] concerns L6 myotube cells. The assay can be described thus: 2-DG (glucose) absorption into L6 myotube cells. An excerpt:
It is well known that the activation of AMPK also increases the glucose absorption into cells, and thus causes a blood glucose level reducing effect (Hardie, et al., FEBS Lett. 546, 113-120, 2003; Carling, et al., Trends. Biochem. Sci. 29, 18-24, 2004; Kahn, et al., Cell Metab. 1, 15-25, 2005; Cool, et al., Cell Metab. 3. 403-416, 2006; Lee et al., Diabetes, 55, 2256-2264, 2006; Hwang et al., Biochem. Biophys. Res. Commun. 371, 289-293, 2008). Accordingly, the treatment of damulin A and damulin B on L6 myotube cells was carried out to determine the influence on the glucose absorption into cells.
To cultured L6 myotube cells, high concentration glucose was added together with 2-DG (2-deoxy-[3H]D-glucose) (a radioactive isotope that is not decomposed within a cell) according to the method of Hwang et al. (Biochem. Biophys. Res. Commun. 377, 1253-1258), and then the accelerated extent of 2-DG absorption into cells by damulin A (30 μg/ml) and damulin B (5 μg/ml) was analyzed. As a result, in the damulin A-treated cells, the capability of absorbing glucose was increased by 42% on the average, and in the damulin B-treated cells, the capability was increased by about 79% (see FIG. 6). Therefore, based on the result, both damulin A and damulin B are determined to have a high anti-diabetes effect by decreasing blood glucose level.

A further assay relates to AMPK. The assay can be described thus: Phosphorylation of AMPK (Thr-172 of α subunit) in L6 myotube cells, western blot. The note with it: 2 hours, damulin A 10, 30, 60 μg/ml, damulin B 1, 5, 10 μg/ml, compared to control group.
The test system of assay [2] is ACC (acetyl-CoA carboxylase). Description: Phosphorylation of ACC (Ser-79) in L6 myotube cells, western blot. The note with it: 2 hours, damulin A 10, 30, 60 μg/ml, damulin B 1, 5, 10 μg/ml, compared to control group. An excerpt:
ACC is an important enzyme for regulating lipid metabolism in liver and muscle tissues. This enzyme carboxylates acetyl-CoA to produce malonyl-CoA. Malonyl-CoA is the most important factor for regulating β-oxidation of fatty acid within mitochondria. When the concentration of malonyl-CoA increases, the activity of CPT-1 (carnitine palmitoyl-CoA transferase) in mitochondrial membrane is reduced, thereby inhibiting β-oxidation of fatty acid, and on the other hand, when the concentration of malonyl-CoA decreases, β-oxidation is increased, accelerating the reduction of body fat. ACC is a subordinate target protein in AMPK activity, and is phosphorylated by the activation of AMPK. […]
Accordingly, differentiated L6 myotube cells were treated with individually separated damulin A with different concentrations (10, 30, and 60 μg/ml), and treated with individually separated damulin B with different concentrations (1, 5, and 10 μg/ml), for 2 hours. The increased extent of the phosphorylation of a threonine residue at (Thr)-172 of AMPK α subunit, and a serine residue at Ser-79 of an ACC enzyme protein was analyzed through western blot analysis according to the method of Hwang, et al. (Biochem. Biophys. Res. Commun. 371, 289-293, 2008). […] Also, both damulin A and damulin B were determined to be active ingredients which phosphorylate and activate AMPK, and phosphorylate and inactivate ACC. […]
Background: Immunoblotting shows a protein as a band on a membrane.

Assay [3] has as its system L6 myotube cells. The assay can be described thus: β-oxidation of fatty acid in L6 myotube cells. On the procedure: When AMPK is activated, the activity of ACC is reduced, thereby reducing the concentration of malonyl-CoA within mitochondria. This accelerates the transport of fatty acid into mitochondria, and thereby increases β-oxidation. Thus, due to the reduction of body fat, an obesity inhibiting effect can be achieved. Cultured L6 myotube cells were treated with purely separated damulin A and damulin B, and the improving effect on β-oxidation of fatty acid was analyzed by the method of Hwang, et al. (Biochem. Biophys. Res. Commun. 377, 1253-1258).
As a result, it was observed that damulin A (30 μg/ml) and damulin B (5 μg/ml) increased β-oxidation of fatty acid 1.8 times and 2.6 times (see FIG. 5).

Text for AMPK: The activity of AMPK may be determined by determining whether or not the phosphorylation of a threonine amino acid residue at position 172 was increased.

For the compound `CC(C)=CC/C=C(/C)[C@H]1CC[C@]2(C)C1[C@H](O)CC1[C@@]3(C)C[C@@H](O)[C@H](OC4OC(CO)[C@@H](O)[C@H](O)[C@@H]4OC4OC(CO)[C@@H](O)[C@H](O)[C@@H]4O)C(C)(C)C3CC[C@]12C` (stereo partly drawn) [damulin A, 2α,3β,12β-trihydroxydammar-20(22)-E,24-diene-3-O-[β-D-glucopyranosyl-(1→)-β-D-glucopyranoside]], the “increase of capability of absorbing glucose (2-DG absorption into cells)” value with L6 myotube cells [1] (30 μg/ml) is reported as 42%. For the same compound, the “phosphorylation of threonine residue (Thr)-172 of AMPK α subunit” value in the assay with AMPK was “concentration-dependently increased the phosphorylation”. Besides, in assay [2], the “phosphorylation of serine residue Ser-79 of ACC” value is “concentration-dependently increased the phosphorylation”. Moreover, in the assay on L6 myotube cells [3] (30 μg/ml), the “increase of β-oxidation of fatty acid” value came out at 1.8 times.
On to `C=C(CCC=C(C)C)[C@H]1CC[C@]2(C)C1[C@H](O)CC1[C@@]3(C)C[C@@H](O)[C@H](OC4OC(CO)[C@@H](O)[C@H](O)[C@@H]4OC4OC(CO)[C@@H](O)[C@H](O)[C@@H]4O)C(C)(C)C3CC[C@]12C` (stereo partly drawn) [damulin B, 2α,3β,12β-trihydroxydammara-20,24-diene-3-O-[β-D-glucopyranosyl-(1→)-β-D-glucopyranoside]], for which the “increase of capability of absorbing glucose (2-DG absorption into cells)” value in the assay with L6 myotube cells [1] (5 μg/ml) is recorded as “about 79%”. In addition, the “phosphorylation of threonine residue (Thr)-172 of AMPK α subunit” value with AMPK is listed as “concentration-dependently increased the phosphorylation”. In assay [2], the “phosphorylation of serine residue Ser-79 of ACC” value is recorded as “concentration-dependently increased the phosphorylation”. Moreover, the “increase of β-oxidation of fatty acid” value with L6 myotube cells [3] (5 μg/ml) came to 2.6 times.
